This is an account of results in ChEMBL document CHEMBL1201862, “PubChem BioAssay data set” (2004).

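Five concentrations, 48 hours, 96-well plates. GI50 is the concentration that inhibits growth by half.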 Calls of active or inactive are those of the source. Rule as the data show it: active = GI50 up to about 1.1 µM and inactive = higher.

Common to all, as to assay: growth of human tumour cells (NCI), 48 h
The subject of experiment [1] is ACHN.
In experiment [2] the test system is CAKI-1.
In experiment [3] the test system is CCRF-CEM.
Experiment [4] relates to COLO 205.
Experiment [5] has as its system HCC 2998.
In experiment [6] the test system is HT-29.
For experiment [7], the system named is KM12.
The subject of experiment [8] is MOLT-4.
For experiment [9], the system named is NCI-H522.
Experiment [10] has as its system NCI/ADR-RES.
Experiment [11] has as its system OVCAR-4.
In experiment [12] the test system is OVCAR-5.
The subject of experiment [13] is RXF 393.
Experiment [14] deals with SN12C.
The test system of experiment [15] is SNB-75.
Experiment [16] deals with TK-10.
Experiment [17] deals with U-251.
Experiment [18] deals with UACC-257.
In experiment [19] the test system is SF-539.
Experiment [20] relates to SR.

As for `COc1ccc2c(c1)CC[C@@H]1[C@@H]2CC[C@]2(C)[C@@H](O)/C(=C/c3ccncc3)C[C@@H]12`, the GI50 is 26.5 µM (inactive) in experiment [1]; 14.8 µM (inactive) in [2]; 11.1 µM (inactive) in [3]; 3.94 µM (inactive) in experiment [4]; 8.59 µM (inactive) in experiment [5]; 3.99 µM (inactive) in experiment [6]. Further, the GI50 in experiment [7] is 9.71 µM (inactive); in experiment [8], 4.65 µM (inactive); in experiment [9], 14 µM (inactive); in experiment [10] it was 15 µM (inactive); in experiment [11], 23.2 µM (inactive); in experiment [12], 12.5 µM (inactive). Besides, the GI50 in [13] was 4.25 µM (inactive); in experiment [14], 22.8 µM (inactive); in experiment [15] it was 10.4 µM (inactive); in experiment [16] it was 18.9 µM (inactive); in [17] it was 12.4 µM (inactive); in experiment [18], 16.6 µM (inactive).
`CCCNC1=C(C)C(=O)C2=C(C1=O)[C@H](COC(N)=O)[C@]1(OC)[C@@H]3N[C@@H]3CN21`: the GI50 in experiment [2] is 4.57 µM (inactive); in experiment [3], 3.16 µM (inactive); in experiment [4], 3.94 µM (inactive); in [5] it was 3.79 µM (inactive); in experiment [6] it was 9.31 µM (inactive); in [7], 8.85 µM (inactive). For the same molecule, the GI50 in experiment [8] is 1.05 µM (active); in experiment [9] it was 2.88 µM (inactive); in experiment [10], > 100 µM (inactive); in experiment [11], 6.93 µM (inactive); in experiment [12], 13.7 µM (inactive); in experiment [13], 12 µM (inactive). The GI50 was 4.39 µM (inactive) in experiment [19]; 2.42 µM (inactive) in experiment [14]; 1.67 µM (inactive) in [15]; 2.48 µM (inactive) in experiment [17]; 5.55 µM (inactive) in experiment [18].
`Cc1c(C(=O)C/C(=N/NC(=O)CC#N)C(N)=O)[n+]([O-])c2ccccc2[n+]1[O-]`: the GI50 was 54 µM (inactive) in experiment [1]; > 100 µM (inactive) in experiment [2]; 35.1 µM (inactive) in experiment [3]; 34.6 µM (inactive) in experiment [4]; 39.5 µM (inactive) in experiment [5]; 78 µM (inactive) in experiment [6]. The GI50 in experiment [7] is 28 µM (inactive); in experiment [8], 35.6 µM (inactive); in experiment [9], 19.8 µM (inactive); in [11] it was 32.7 µM (inactive); in [12], > 100 µM (inactive); in experiment [13] it was > 100 µM (inactive). Besides, the GI50 in experiment [19] was 37.8 µM (inactive); in [14], 30.2 µM (inactive); in experiment [15], > 100 µM (inactive); in experiment [20], 46.1 µM (inactive); in experiment [16] it was > 100 µM (inactive); in [17], 35.7 µM (inactive). The GI50 in experiment [18] was 35.9 µM (inactive).
For the molecule `CCOC(=O)C1(C/C=C\CBr)CCCCCCC1=O` (centres undefined), the GI50 in experiment [1], in [2], in experiment [3], in experiment [4], in experiment [6] and in experiment [7] was > 100 µM (inactive) each time. Moreover, the GI50 in experiment [8], in experiment [9], in [10], in experiment [11], in experiment [12] and in experiment [13] was > 100 µM (inactive) throughout. Moreover, the GI50 in experiment [19] is > 100 µM (inactive); in experiment [14], > 100 µM (inactive); in [15], > 100 µM (inactive); in experiment [16], 91 µM (inactive); in [17], > 100 µM (inactive); in [18], > 100 µM (inactive).
Take `CCCC(O)C(NC(=O)CCl)C(=O)O` (centres undefined): the GI50 in experiment [2], in experiment [3], in experiment [4], in experiment [5], in [6] and in experiment [7] was > 100 µM (inactive) each time. Moreover, the GI50 in [8], in experiment [9], in experiment [10], in experiment [11], in experiment [12] and in [13] was > 100 µM (inactive) each time. In addition, the GI50 in experiment [19], in experiment [14], in experiment [15], in [17] and in experiment [18] was > 100 µM (inactive) throughout.
For the molecule `CCC(c1c[nH]c2ccc(Br)cc12)c1c[nH]c2ccc(Br)cc12`, the GI50 in experiment [1] is 3.65 µM (inactive); in experiment [2], 2.45 µM (inactive); in [3], 2.95 µM (inactive); in experiment [4], 2.42 µM (inactive); in experiment [5], 2.19 µM (inactive); in [6] it was 3.08 µM (inactive). Besides, the GI50 is 1.97 µM (inactive) in experiment [7]; 1.94 µM (inactive) in experiment [8]; 4.44 µM (inactive) in experiment [9]; 3.08 µM (inactive) in [10]; 2.75 µM (inactive) in experiment [11]; 3.78 µM (inactive) in experiment [12]. Moreover, the GI50 was 2.32 µM (inactive) in [13]; 12.5 µM (inactive) in experiment [19]; 3.7 µM (inactive) in [14]; 10.9 µM (inactive) in [16]; 3.72 µM (inactive) in experiment [17]; 11.6 µM (inactive) in experiment [18].
With `O=C1/C(=C2/CCCN2)C(c2ccc[nH]2)=NN1c1ccccc1`, the GI50 in experiment [1] was > 100 µM (inactive); in experiment [2] it was > 100 µM (inactive); in [3], 1.75 µM (inactive); in experiment [4], > 100 µM (inactive); in experiment [6], > 100 µM (inactive); in experiment [7], > 100 µM (inactive). In addition, the GI50 in experiment [8], in [9], in experiment [10], in [11], in experiment [12] and in [13] was > 100 µM (inactive) in each case. The GI50 in [19], in experiment [14], in experiment [15], in experiment [16], in experiment [17] and in experiment [18] was > 100 µM (inactive) each time.
With `N#Cc1ccc(/C=C(/C(=O)c2ccccc2)c2ccccc2)cc1`, the GI50 in experiment [1] was 15.5 µM (inactive); in experiment [2] it was 14.2 µM (inactive); in experiment [3], 3.19 µM (inactive); in [4], 19.6 µM (inactive); in experiment [5], 16.9 µM (inactive); in [6], 8.18 µM (inactive). The GI50 in experiment [7] was 3.24 µM (inactive); in experiment [8] it was 2.99 µM (inactive); in experiment [9] it was 8.41 µM (inactive); in experiment [11] it was 10.2 µM (inactive); in experiment [12], 18 µM (inactive); in experiment [13], 17.8 µM (inactive). The GI50 in [19] is 21.2 µM (inactive); in experiment [14], 9.66 µM (inactive); in [15], 27.2 µM (inactive); in [20], 2.62 µM (inactive); in [16], 24 µM (inactive); in [17], 12.4 µM (inactive). In addition, the GI50 in [18] was 12.4 µM (inactive).
With `O=C1c2ccccc2C(=O)c2c1ccc1c2N=C(c2ccc(Br)cc2)CC(c2cccc3ccccc23)N1` (centres undefined), the GI50 in experiment [1], in [2], in experiment [3], in experiment [4], in experiment [5] and in [6] was > 100 µM (inactive) in each case. For the same molecule, the GI50 in [7] was > 100 µM (inactive); in experiment [8], > 10 µM (inactive); in experiment [9] it was > 100 µM (inactive); in [11], > 100 µM (inactive); in [12], > 100 µM (inactive); in experiment [13] it was > 100 µM (inactive). Besides, the GI50 is > 100 µM (inactive) in experiment [19]; > 100 µM (inactive) in [14]; 94.6 µM (inactive) in [15]; 57.7 µM (inactive) in [20]; > 100 µM (inactive) in experiment [16]; > 100 µM (inactive) in experiment [17]. Also, in experiment [18], the GI50 was > 100 µM (inactive).
Regarding `NC(=O)c1ncn2c1NCC1OC2C(O)C1O` (centres undefined), the GI50 in experiment [1], in experiment [2], in [3], in experiment [4], in [5] and in experiment [6] was > 100 µM (inactive) each time. Besides, the GI50 in [7], in experiment [8], in [9], in [11], in experiment [12] and in [13] was > 100 µM (inactive) each time. Besides, the GI50 in experiment [19], in experiment [14], in [15], in experiment [20], in experiment [16] and in [17] was > 100 µM (inactive) each time. The GI50 in experiment [18] is > 100 µM (inactive).
As to `C[C@@H]1OC(=O)/C(=C\N(C)C)[C@H]2CC(=O)N(CCc3cn(S(=O)(=O)C(F)(F)F)c4ccccc34)C[C@H]12`, the GI50 in experiment [1], in [2], in [4], in experiment [5], in experiment [7] and in experiment [8] was > 100 µM (inactive) each time. For the same molecule, the GI50 in experiment [9], in [10], in [11], in experiment [12], in experiment [13] and in experiment [19] was > 100 µM (inactive) throughout. Further, the GI50 in [14], in experiment [15], in experiment [16], in [17] and in experiment [18] was > 100 µM (inactive) throughout.
